Laboratory results: patent US8865197B2, “Food formulation for aquatic animals with integrated targeted delivery of bioactive agents” (Israel Oceanographic and Limnological Research Ltd., priority 2005, dated 2014)

Tested on: rainbow trout
Test: Cannulation experiment: plasma cortisol response to oral ACTH with gut modulators
Format: in vivo, rainbow trout (Oncorhynchus mykiss)
Details: for Cumulative plasma cortisol: over a 360 min period, oral ACTH 0.5 mg kg^−1
Experimental: Rainbow trout of a weight range of 750-1700 g (Spring Valley Trout Farms, Langley, BC) were immunized against firunculosis and vibriosis by injecting them with 0.2 ml fish^−1 of a 1:1 ratio of VIBRIOGEN and FUROGEN (Microtek, BC, Canada), and stocked in 4,000 liter tanks. The tanks were supplied with well water at a temperature of 10±0.5° C. at about 10 exchanges per day. After 10 days fish were transferred gradually over a period of another 10 days to full strength seawater (25-29 ppt). The temperature of the seawater ranged between 7-9° C. according to season. Only following their acclimation to seawater, after another 10 days, were fish used. […] Fish were fed daily about 1% BW of a 42% protein and 33% crude fat diet (Moore-Clark Co., Canada).
Fish were kept individually in 200 1 fiberglass tub aquaria. Fish in the tanks were confined to one half of the tank with a partition. […] In addition, fish were encouraged to swim against a current, which was generated by a pipe which directed the water inflow to the surface of the tank. The experimental fish were not fed within a given experiment, which normally lasted for 5 days, and were force fed once a week with a 0.5% body weight of a Moore Clark “Royal extrude salmon feed” (42% C.P., 33% C.F.), which was mixed with water at a 1:1 ratio to give a paste which could be intubated into the fish.
Fish were anesthetized in two stages. They were first sedated in metomidate hydrochloride (Marinil, Wildlife laboratories Inc. CO, USA) in a 250 ppb solution in the 4000 liter holding tanks with the water supply turned off. Fish were netted out of the 4,000 liter tanks into 15 liter of well aerated 100 ppm MS222 (3 amino benzoic acid ethyl ester; SIGMA) solution in SW for a deeper anesthesia. Fish were sedated until active gill ventilation ceased at which point they were taken out of the water, weighed and cannulated.
Samples were taken of blood to determine plasma cortisol or hCG. Blood sampling was done in two stages: First a volume equal to the dead volume of the cannula (˜250 μl) was withdrawn and discarded, this was followed by sampling 250-500 μl blood, depending on the RIA assay (cortisol or hCG), into a 1 ml EDTA-Aprotinin coated syringe. The blood samples were kept in 500 μl Eppendorf tubes on ice for up to two hours within which time the tubes were centrifuged at 13,000 rpm for 5 min. The supernatant plasma was removed by disposable Pasteur pipettes into Eppendorff tubes and stored at −40° C. until the RIA. When blood samples were taken for hCG analysis they were centrifuged for 5 minutes at 3750 rpm at 5° C.
To measure plasma cortisol, 20 μl of plasma was applied to a kit by INCSTAR (Minnesota, USA). No significant crossreactivity of this kit was found with dexamethasone (9α-Fluoro-16α-Methyl Predindone, SIGMA), while it crossreacted with cortisol (hydrocortisone; SIGMA), which was used in the clearance rate experiments. Porcine ACTH (SIGMA) which was used for the intubation study elicited a cortisol response in fish but could not be detected reliably by the cortisol RIA. Plasma hCG was also determined based on a RIA (INCSTAR) kit and of the orally applied hCG based on Van der Kraak et al. (1984). ACTH stimulates cortisol production in the interrenal cells of the kidney.

How did the “cumulative response of cortisol to plasma ACTH” value (DOC molar concentration 0.0167 in the intubation medium (PBS)) turn out when `C[C@H](CCC(=O)O)[C@H]1CC[C@H]2[C@@H]3CC[C@@H]4C[C@H](O)CC[C@]4(C)[C@H]3C[C@H](O)[C@]12C` [DOC, deoxycholic acid] was run?
The value was 7042±3243 ng cortisol kg^−1.

For `O=c1[nH]c2ccccc2n1CCCN1CCC(n2c(=O)[nH]c3cc(Cl)ccc32)CC1` [DOM, domperidone], which “gut penetrability to ACTH as reflected by plasma cortisol” value (change relative to no modulator) is on record?
The value was “quadrupled”.

What about the Cumulative plasma cortisol (DOM 4.5 mg kg^−1) of the same compound?
Its Cumulative plasma cortisol is 4329 ng/kg.

With ACTH as the compound, how does the “cumulative response of cortisol to plasma ACTH” value (DOC molar concentration 0 in the intubation medium (PBS)) read?
The value was 1454±597 ng cortisol kg^−1.

And the Cumulative plasma cortisol (DOM 0 mg kg^−1)?
Its Cumulative plasma cortisol is 1086 ng/kg.
